# Data reported in patent publication US6924285B2, “Bicyclic heterocyclic compounds, pharmaceutical compositions containing these compounds, their use and process for preparing them” (Boehringer Ingelheim Pharma GmbH & Co., priority 2002, dated 2005).
# Biological target: T1, human EGF-receptor kinase (Homo sapiens, UniProt P00533)
# T1 construct: GST; made in house; host or cells: Sf9 insect cells (baculovirus)
# Test: Inhibition of human EGF-receptor kinase (enzyme assay, ELISA read-out)
# Assay type: biochemical
# Conditions: cytoplasmic tyrosine kinase domain as GST fusion protein, substrate pEY/bio-pEY, 30 minutes at ambient temperature
# Method: The inhibition of human EGF-receptor kinase was determined using the cytoplasmic tyrosine kinase domain (methionine 664 to alanine 1186 based on the sequence published in Nature 309 (1984), 418). For this the protein was expressed in Sf9 insect cells as GST fusion protein using the Baculovirus expression system.
# The enzyme activity was measured in the presence or absence of the test compounds in serial dilutions. The polymer pEY (4:1) obtained from SIGMA was used as the substrate. Biotinylated pEY (bio-pEY) was added as the tracer substrate. 100 μl of reaction solution contained 10 μl of the inhibitor in 50% DMSO, 20 μl of the substrate solution (200 mM HEPES pH 7.4, 50 mM magnesium acetate, 2.5 mg/ml poly(EY), 5 μg/ml bio-pEY) and 20 μl of enzyme preparation. The enzyme reaction was started by the addition of 50 μl of a 100 μM ATP solution in 10 mM of magnesium chloride. The dilution of the enzyme preparation was adjusted so that the incorporation of phosphate in the bio-pEY was linear in terms of time and quantity of enzyme. The enzyme preparation was diluted in 20 mM HEPES pH 7.4, 1 mM EDTA, 130 mM common salt, 0.05% Triton X-100, 1 mM DTT and 10% glycerol.
# The enzyme assays were carried out at ambient temperature over a period of 30 minutes and ended by the addition of 50 μl of a stopping solution (250 mM EDTA in 20 mM HEPES pH 7.4). 100 μl were placed on a streptavidine-coated microtitre plate and incubated for 60 minutes at ambient temperature. Then the plate was washed with 200 μl of a wash solution (50 mM Tris, 0.05% Tween 20). After the addition of 100 μl of an HRPO-labelled anti-PY antibody (PY20H Anti-PTyr:HRP made by Transduction Laboratories, 250 ng/ml) the preparation was incubated for 60 minutes. Then the microtitre plate was washed three times with 200 μl of wash solution. The samples were then combined with 100 μl of a TMB-peroxidase solution (A:B=1:1, Kirkegaard Perry Laboratories). After 10 minutes the reaction was stopped. The extinction was measured at OD450 nm with an ELISA reader. All the results were measured three times.
# The data were adapted by iterative calculation using an analytical pogramme for sigmoidal curves (Graph Pad Prism Version 3.0) with a variable Hill pitch. […] The active substance concentration which inhibits the activity of EGF receptor kinase by 50% (IC50) was derived from the curves.
# T1 sequence (P00533 688-1210): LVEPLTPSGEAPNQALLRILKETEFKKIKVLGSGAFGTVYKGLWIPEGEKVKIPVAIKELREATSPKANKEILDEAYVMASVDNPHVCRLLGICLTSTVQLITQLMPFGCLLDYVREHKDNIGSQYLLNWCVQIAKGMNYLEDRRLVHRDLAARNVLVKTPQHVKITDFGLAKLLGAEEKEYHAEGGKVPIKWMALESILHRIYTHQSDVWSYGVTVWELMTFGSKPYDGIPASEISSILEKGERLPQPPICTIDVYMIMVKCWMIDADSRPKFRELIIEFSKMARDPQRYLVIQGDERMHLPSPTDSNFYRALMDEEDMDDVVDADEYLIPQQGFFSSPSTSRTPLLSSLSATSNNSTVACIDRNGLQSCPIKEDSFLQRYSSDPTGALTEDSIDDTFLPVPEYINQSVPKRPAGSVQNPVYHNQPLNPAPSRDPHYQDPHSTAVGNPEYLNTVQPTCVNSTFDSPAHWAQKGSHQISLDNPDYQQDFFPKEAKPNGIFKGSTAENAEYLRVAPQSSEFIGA
row,IC50 [pM],SMILES
1,120,"COc1cc2ncnc(Nc3ccc(F)c(Cl)c3)c2cc1OC1CCOCC1 [1(1), 4-[(3-chloro-4-fluoro-phenyl)amino]-6-(tetrahydropyran-4-yloxy)-7-methoxy-quinazoline]"
2,2000,"COc1cc2ncnc(Nc3ccc(F)c(Cl)c3)c2cc1O[C@H]1CC[C@@H](NC(=O)OC(C)(C)C)CC1 [1(2), 4-[(3-chloro-4-fluoro-phenyl)amino]-6-[cis-4-(tert.-butyloxycarbonylamino)-cyclohexan-1-yloxy]-7-methoxy-quinazoline]"
3,1100,"COc1cc2ncnc(Nc3ccc(F)c(Cl)c3)c2cc1O[C@@H]1CCOC1 [1(3), 4-[(3-chloro-4-fluoro-phenyl)amino]-6-((R)-tetrahydrofuran-3-yloxy)-7-methoxy-quinazoline]"
4,600,"COc1cc2ncnc(Nc3ccc(F)c(Cl)c3)c2cc1O[C@H]1CC[C@H](NC(=O)OC(C)(C)C)CC1 [1(4), 4-[(3-chloro-4-fluoro-phenyl)amino]-6-[trans-4-(tert.-butyloxycarbonylamino)-cyclohexan-1-yloxy]-7-methoxy-quinazoline]"
5,600,"COc1cc2ncnc(Nc3ccc(F)c(Cl)c3)c2cc1OC1CCN(C(=O)OC(C)(C)C)CC1 [1(5), 4-[(3-chloro-4-fluoro-phenyl)amino]-6-[1-(tert.-butyloxycarbonyl)-piperidin-4-yloxy]-7-methoxy-quinazoline]"
6,690,"COc1cc2ncnc(Nc3ccc(F)c(Cl)c3)c2cc1OC1CCCOC1 (stereo not drawn) [1(6), 4-[(3-chloro-4-fluoro-phenyl)amino]-6-(tetrahydropyran-3-yloxy)-7-methoxy-quinazoline]"
7,160,"COc1cc2ncnc(Nc3ccc(F)c(Cl)c3)c2cc1O[C@H]1CC[C@H](N)CC1 [2(1), 4-[(3-chloro-4-fluoro-phenyl)amino]-6-(trans-4-amino-cyclohexan-1-yloxy)-7-methoxy-quinazoline]"
8,140,"COc1cc2ncnc(Nc3ccc(F)c(Cl)c3)c2cc1O[C@H]1CC[C@H](NS(C)(=O)=O)CC1 [3(1), 4-[(3-chloro-4-fluoro-phenyl)amino]-6-(trans-4-methanesulphonylamino-cyclohexan-1-yloxy)-7-methoxy-quinazoline]"
9,220,"COc1cc2ncnc(Nc3ccc(F)c(Cl)c3)c2cc1OC1CCN(S(C)(=O)=O)CC1 [3(2), 4-[(3-chloro-4-fluoro-phenyl)amino]-6-(1-methanesulphonyl-piperidin-4-yloxy)-7-methoxy-quinazoline]"
10,700,"COc1cc2ncnc(Nc3ccc(F)c(Cl)c3)c2cc1OC1CCN(C(=O)N2CCOCC2)CC1 [3(7), 4-[(3-chloro-4-fluoro-phenyl)amino]-6-{1-[(morpholin-4-yl)carbonyl]-piperidin-4-yloxy}-7-methoxy-quinazoline]"
11,600,"COCC(=O)N1CCC(Oc2cc3c(Nc4ccc(F)c(Cl)c4)ncnc3cc2OC)CC1 [3(8), 4-[(3-chloro-4-fluoro-phenyl)amino]-6-{1-[(methoxymethyl)carbonyl]-piperidin-4-yloxy}-7-methoxy-quinazoline]"
12,200,"COc1cc2ncnc(Nc3ccc(F)c(Cl)c3)c2cc1OC1CCN(C#N)CC1 [3(9), 4-[(3-chloro-4-fluoro-phenyl)amino]-6-(1-cyano-piperidin-4-yloxy)-7-methoxy-quinazoline]"
13,100,"COc1cc2ncnc(Nc3ccc(F)c(Cl)c3)c2cc1OC1CCN(S(=O)(=O)N2CCOCC2)CC1 [3(11), 4-[(3-chloro-4-fluoro-phenyl)amino]-6-{1-[(morpholin-4-yl)sulphonyl]-piperidin-4-yloxy}-7-methoxy-quinazoline]"
14,1000,"COc1cc2ncnc(Nc3ccc(F)c(Cl)c3)c2cc1OC1CCN(CCNC(C)=O)CC1 [3(15), 4-[(3-chloro-4-fluoro-phenyl)amino]-6-[1-(2-acetylamino-ethyl)-piperidin-4-yloxy]-7-methoxy-quinazoline]"
15,1000,"COc1cc2ncnc(Nc3ccc(F)c(Cl)c3)c2cc1O[C@H]1CC[C@H](NS(=O)(=O)N(C)C)CC1 [3(16), 4-[(3-chloro-4-fluoro-phenyl)amino]-6-{trans-4-[(dimethylamino)sulphonylamino]-cyclohexan-1-yloxy}-7-methoxy-quinazoline]"
16,300,"COc1cc2ncnc(Nc3ccc(F)c(Cl)c3)c2cc1O[C@H]1CC[C@H](NC(=O)N2CCOCC2)CC1 [3(17), 4-[(3-chloro-4-fluoro-phenyl)amino]-6-{trans-4-[(morpholin-4-yl)carbonylamino]-cyclohexan-1-yloxy}-7-methoxy-quinazoline]"
17,400,"COc1cc2ncnc(Nc3ccc(F)c(Cl)c3)c2cc1O[C@H]1CC[C@H](NS(=O)(=O)N2CCOCC2)CC1 [3(18), 4-[(3-chloro-4-fluoro-phenyl)amino]-6-{trans-4-[(morpholin-4-yl)sulphonylamino]-cyclohexan-1-yloxy}-7-methoxy-quinazoline]"
18,1000,"CC(=O)NCCOc1cc2ncnc(Nc3ccc(F)c(Cl)c3)c2cc1OC1CCOCC1 [3(20), 4-[(3-chloro-4-fluoro-phenyl)amino]-6-(tetrahydropyran-4-yloxy)-7-(2-acetylamino-ethoxy)-quinazoline]"
19,400,"CS(=O)(=O)NCCOc1cc2ncnc(Nc3ccc(F)c(Cl)c3)c2cc1OC1CCOCC1 [3(21), 4-[(3-chloro-4-fluoro-phenyl)amino]-6-(tetrahydropyran-4-yloxy)-7-(2-methanesulphonylamino-ethoxy)-quinazoline]"
20,160,"COc1cc2ncnc(Nc3ccc(F)c(Cl)c3)c2cc1O[C@H]1CC[C@H](NS(=O)(=O)CCCN2CCOCC2)CC1 [4(1), 4-[(3-chloro-4-fluoro-phenyl)amino]-6-(trans-4-{[3-(morpholin-4-yl)-propyl]sulphonylamino}-cyclohexan-1-yloxy)-7-methoxy-quinazoline]"
21,1000,"COCCOc1cc2ncnc(Nc3ccc(F)c(Cl)c3)c2cc1OC1CCOCC1 [7(5), 4-[(3-chloro-4-fluoro-phenyl)amino]-6-(tetrahydropyran-4-yloxy)-7-(2-methoxy-ethoxy)-quinazoline]"
22,220,"COc1cc2ncnc(Nc3ccc(F)c(Cl)c3)c2cc1OC1CCNCC1 [Example 2(2), 4-[(3-chloro-4-fluoro-phenyl)amino]-6-(piperidin-4-yloxy)-7-methoxy-quinazoline x trifluoroacetic acid]"
23,4500,"COc1cc2ncnc(Nc3ccc(F)c(Cl)c3)c2cc1O[C@H]1CC[C@@H](N)CC1 [Example 2, 4-[(3-chloro-4-fluoro-phenyl)amino]-6-(cis-4-amino-cyclohexan-1-yloxy)-7-methoxy-quinazoline x Trifluoroacetic Acid]"
24,410,"COc1cc2ncnc(Nc3ccc(F)c(Cl)c3)c2cc1O[C@H]1CC[C@@H](NS(=O)(=O)CCCN2CCOCC2)CC1 [Example 4, 4-[(3-chloro-4-fluoro-phenyl)amino]-6-(cis-4-{[3-(morpholin-4-yl)-propyl]sulphonylamino}-cyclohexan-1-yloxy)-7-methoxy-quinazoline]"

# Test system: not given
# Test: not given
# Conditions: not given
row,melting point [°C],SMILES
1,251,COc1cc2ncnc(Nc3ccc(F)c(Cl)c3)c2cc1O[C@H]1CCNC1.Cl.Cl
2,184,"COc1cc2ncnc(Nc3ccc(F)c(Cl)c3)c2cc1O[C@H]1CCOC1 [Example 1, 4-[(3-chloro-4-fluoro-phenyl)amino]-6-((S)-tetrahydrofuran-3-yloxy)-7-methoxy-quinazoline]"
3,232,"COc1cc2ncnc(Nc3ccc(F)c(Cl)c3)c2cc1O[C@H]1CC[C@@H](N)CC1 [Example 2, 4-[(3-chloro-4-fluoro-phenyl)amino]-6-(cis-4-amino-cyclohexan-1-yloxy)-7-methoxy-quinazoline x Trifluoroacetic Acid]"
4,205,"Fc1ccc(Nc2ncnc3cc(OCCCN4CCOCC4)c(OC4CCOCC4)cc23)cc1Cl [Example 7, 4-[(3-chloro-4-fluoro-phenyl)amino]-6-(tetrahydropyran-4-yloxy)-7-[3-(morpholin-4-yl)-propyloxy]-quinazoline]"
5,233,"CN(C)C(=O)CN1CCC(Oc2ccc3ncnc(Nc4ccc(F)c(Cl)c4)c3c2)CC1 [Example 10, 4-[(3-chloro-4-fluoro-phenyl)amino]-6-{1-[(dimethylamino)carbonylmethyl]-piperidin-4-yloxy}-quinazoline]"
6,171,"COc1cc2ncnc(Nc3ccc(F)c(Cl)c3)c2cc1OC1CCN(C(=O)N2CCCOCC2)CC1 [Example 12, 4-[(3-chloro-4-fluoro-phenyl)amino]-6-{1-[([1,4]oxazepan-4-yl)carbonyl)-piperidin-4-yloxy}-7-methoxy-quinazoline]"
